Experimental data taken from PubChem BioAssay (NCI).
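Following 48 hours of exposure in 96-well plates, responses at five concentrations were used to interpolate endpoints linearly. GI50 marks 50% less growth. The concentration for full growth arrest is given as TGI.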

Tests used:
Test in all cases: DTP human tumour cell line panel, 48 h
SF-539 CNS = test system: SF-539 CNS
M14 melanoma = test system: M14 melanoma
RPMI-8226 leukemia = test system: RPMI-8226 leukemia
NCI-H460 lung = test system: NCI-H460 lung
K-562 leukemia = test system: K-562 leukemia
UACC-62 melanoma = test system: UACC-62 melanoma
EKVX NSCLC = test system: EKVX NSCLC
SW-620 colon = test system: SW-620 colon
DU-145 prostate = test system: DU-145 prostate
MCF7 breast = test system: MCF7 breast

SMILES | TGI (SF-539 CNS) [µM] | TGI (M14 melanoma) [µM] | TGI (RPMI-8226 leukemia) [µM] | TGI (NCI-H460 lung) [µM] | TGI (K-562 leukemia) [µM] | TGI (UACC-62 melanoma) [µM] | TGI (EKVX NSCLC) [µM] | TGI (SW-620 colon) [µM] | GI50 (SF-539 CNS) [µM] | GI50 (DU-145 prostate) [µM] | TGI (DU-145 prostate) [µM] | GI50 (M14 melanoma) [µM] | GI50 (RPMI-8226 leukemia) [µM] | GI50 (MCF7 breast) [µM] | TGI (MCF7 breast) [µM] | GI50 (NCI-H460 lung) [µM] | GI50 (K-562 leukemia) [µM] | GI50 (UACC-62 melanoma) [µM] | GI50 (SW-620 colon) [µM]
CCOC(=O)C(C(=O)c1ccccc1-c1ccccc1C(=O)O)=P(c1ccccc1)(c1ccccc1)c1ccccc1 | 35.3 | > 100 | 78.9 | 39 | > 100 | 33 | > 100 | > 100 | – | – | – | – | – | – | – | – | – | – | –
COC(=O)C1Cc2c([nH]c3ccccc23)[C@H](CC(C)C)N1 (some centres not stated) | > 100 | > 100 | > 100 | – | > 100 | > 100 | > 100 | > 100 | – | – | – | – | – | – | – | – | – | – | –
CCOC(=O)c1cnc2ccc(Cl)cc2c1NCCCN(C)C | 41.5 | 33 | 54.9 | 82.7 | > 100 | 32.8 | – | 74.6 | 17.4 | 25.5 | 76.3 | 17.8 | 20.7 | 19.4 | 75.6 | 22.2 | 18.1 | 16.4 | 13.4
COc1ccc(NC(=O)CC/C(CC(=O)c2ccco2)=N/Nc2ccc([N+](=O)[O-])cc2[N+](=O)[O-])cc1 | > 100 | > 100 | 82.3 | > 100 | > 100 | > 100 | > 100 | > 100 | – | – | – | – | – | – | – | – | – | – | –
CC[C@]1(O)C[C@@H]2CN(Cc3c([nH]c4ccccc34)[C@@](C(=O)OC)(c3cc4c(cc3OC)N(C)[C@H]3[C@@](O)(C(=O)OC)[C@H](OC(C)=O)[C@]5(CC)[C@@H]6C[C@@H]6CN6CC[C@]43[C@@H]65)C2)C1 | – | > 2.93 | > 4.38 | > 4.38 | > 4.38 | > 4.38 | – | > 4.38 | 0.0363 | 0.0433 | > 4.38 | 0.135 | 0.0372 | 0.0181 | > 4.38 | 0.109 | 0.0279 | 0.0578 | 0.0701
C=CCCc1cc(OC)ccc1CN(C)C(C)(C)CO | > 100 | – | > 100 | > 100 | > 100 | > 100 | > 100 | > 100 | – | – | – | – | – | – | – | – | – | – | –
O=c1[nH]nc(-c2ccccc2)c(-c2ccccc2)c1-n1nc(-c2ccccc2)c2ccccc2c1=O | > 100 | > 100 | > 100 | > 100 | > 100 | > 100 | > 100 | > 100 | – | – | – | – | – | – | – | – | – | – | –
C=C1C(=O)OC2C1C(OC(=O)/C(=C/C)COC(C)=O)CC1(CO1)C1C(OC(=O)/C(=C/C)CO)C=C(C)C21 (configuration not stated) | 19.5 | 3.86 | 6.56 | 28.3 | 10 | 3.01 | 4.16 | 9.56 | – | – | – | – | – | – | – | – | – | – | –
CC(=O)OC1COC(N2C(=O)C(=O)c3c(C)cc(Cl)nc32)C(OC(C)=O)C1OC(C)=O (configuration not stated) | > 100 | > 100 | > 100 | > 100 | > 100 | > 100 | > 100 | > 100 | – | – | – | – | – | – | – | – | – | – | –
C[N+](C)(C)CC(=O)N/N=C(/C=C/c1ccccc1)CC1OC(=O)c2ccccc21 (configuration not stated) | > 100 | > 100 | > 100 | > 100 | > 100 | > 100 | > 100 | > 100 | – | – | – | – | – | – | – | – | – | – | –
